Columns and labels:
[1] = tested on: brain perivascular macrophages; experiment: 2-NBDG glucose uptake in brain perivascular macrophages of ALS transgenic animals; format: in vivo, mice; details: 25 mg/kg orally 3 times a week for 8 weeks, 13 weeks of age
Procedure: ALS transgenic animals were orally treated 3 times a week for 8 weeks with 0.5% methylcellulose or ZLN005 (Sigma) at 25 mg/kg in 0.5% methylcellulose, starting at 5 weeks of age. For measuring brain perivascular macrophages, ALS-Ctrl (n=8), ALS-ZLN (n=8), and WT animal (n=12) were sacrificed at 13 weeks of age. PBS-perfused brain tissues of sacrificed animals were digested with Collagenase IV and processed for flow cytometry. Brain perivascular macrophages were stained with 2-NBDG, the fluorescent glucose analog, to measure glucose uptake for flow cytometric acquisition (LSRII, BD) and analysis (FlowJo). The results are summarized in FIG. 20; Y-axis represents % of brain perivascular macrophages that have taken up the glucose analog, 2-NBDG. […] ANOVA was used for statistical analysis.

[2] = tested on: CD45hi CD11b+F4/80+brain perivascular macrophages; experiment: Frequency of brain perivascular macrophages in ALS transgenic animals; format: in vivo, mice; details: 25 mg/kg orally 3 times a week for 8 weeks, 13 weeks of age
Procedure: ALS transgenic animals were orally treated 3 times a week for 8 weeks with 0.5% methylcellulose or ZLN005 (Sigma) at 25 mg/kg in 0.5% methylcellulose, starting at 5 weeks of age. For measuring the frequency of CD45hi CD11b+F4/80+brain perivascular macrophages, ALS-Ctrl (n=13), ALS-ZLN (n=17), and WT animals (n=17) were sacrificed at 13 weeks of age. PBS-perfused brain tissues of sacrificed animals were digested with Collagenase IV and processed for flow cytometry. The results are summarized in FIG. 19; Y-axis represents % of brain perivascular macrophages among total brain immune cells in the brain. […] ANOVA was used for statistical analysis.

[3] = tested on: DLB transgenic animals; experiment: Wheel-running test in DLB transgenic animals (SNCA*A53T); format: in vivo, mice; details: 25 mg/kg orally 3 times a week for 12 weeks
Procedure: […] transgenic mice, an animal model in which the mutated form of human alpha synuclein is overexpressed, were generated to study pathological mechanisms in PD and DLB (Lee et al, Proc Natl Acad Sci USA. 2002, 13:8968-8970). […] DLB transgenic animals were purchased from Jackson Laboratories and were orally treated 3 times a week with 0.5% methylcellulose (Ctrl) or ZLN005 (ZLN) at 25 mg/kg in vehicle, starting at 8 weeks of age for 12 weeks. Subsequently, at 20 weeks of age, these animals were subjected to 1.5 weeks of training on a treadmill at a constant speed 10 rpm and then 1.5 weeks of training at an accelerating speed from 5-15 rpm, similar to those described in Example 8. After the training period at 21.5 and 23 weeks of age, animals were tested for motor performance at a constant speed and at an accelerating speed, respectively. DLB-ZLN mice (n=11) show an increase in latency to fall in comparison to DLB-Ctrl mice (n=9) at a constant speed of 10 rpm (271.5 seconds vs. 252.8 seconds). […] Thus, motor dysfunction of DLB mice was alleviated by ZLN005 treatment. Unpaired t-tests were used for statistical analyses.

[4] = tested on: STZ-treated mice; experiment: Disease severity in acute STZ model of AD; format: in vivo; details: STZ-ZLN mice
Procedure: To induce symptoms of AD, STZ (3 mg/kg, Sigma) was administered via intracerebral injection ([…] et al, Int J Neurosci, PMID 24494726, 2014). This is a well-established model of the sporadic form of AD. Briefly, animals were anesthetized and STZ solution in 5 μl artificial cerebrospinal fluid (Harvard Apparatus) was injected through the skull with a 50 μl syringe. Control animals received a similar volume of artificial cerebrospinal fluid without STZ. The injections were performed twice, on Day 1 and Day 3. […] Treatment with ZLN005 continued on a daily schedule until Day 4, when the animals were evaluated. […] In contrast, in STZ-Ctrl mice, only 10% were active, 70% were lethargic, and 20% of these animals had hind limb paralysis. […] The inventors designed a disease scoring system based on evidence of tissue inflammation: with scores of 1 (mild inflammation, increased vascularization/bleeding of internal organs), 2 (moderate inflammation, severe vascularization/bleeding of internal organs), and 3 (severe inflammation, intestinal or stomach swelling). […] The disease score presented in the example is the total score of the two scoring systems. […] Unpaired t-test was used for statistical analysis.

[5] = tested on: dopaminergic neurons in the substantia nigra; experiment: Immunohistochemical analysis of dopaminergic neurons in MPTP-treated animals; format: in vivo, mice; details: 25 mg/kg orally once a day for 7 days, Day 8
Procedure: For protein expression studies, animals were sacrificed on Day 8, 24 hours after the 7th oral dosage of ZLN005, and paraformaldehyde-perfused brain tissues were processed for immunohistochemical analysis of dopaminergic neurons in the substantia nigra. The brown staining represents tyrosine hydroxylase expression in dopaminergic neurons of the substantia nigra.

[6] = tested on: AD transgenic animals; experiment: Nest building in 5XFAD AD transgenic animals; format: in vivo, mice; details: 25 mg/kg orally 3 times a week for 4 weeks, 7 weeks of age, vs 5XFAD-Ctrl
Procedure: As described in Example 7, nest-building skill is one of the most reliable measurements of motor function. In this test, AD transgenic animals were orally treated 3 times a week for 4 weeks with 0.5% methylcellulose or ZLN005 (Sigma) at 25 mg/kg in 0.5% methylcellulose, starting at 3 weeks of age. At 7 weeks of age, animals were given cotton pads and the amount of cotton that was shredded over a 24-hour period was measured. […] Unpaired t-test was used for statistical analysis.

[7] = tested on: ALS transgenic mice; experiment: Survival of ALS transgenic animals; format: in vivo
Procedure: ALS transgenic mice were orally treated 3 times a week with 0.5% methylcellulose or ZLN005 (Sigma) at 25 mg/kg in 0.5% methylcellulose, starting at 5, 10 and 15 weeks of age.
Survival of ALS-Ctrl (n=18) and ALS-ZLN mice (n=8) were monitored until all animals succumbed. […] Log-rank test was used for statistical analysis.

[8] = tested on: ALS transgenic mice; experiment: Wheel-running test in ALS transgenic animals; format: in vivo; details: 25 mg/kg orally 3 times a week for 4 weeks from 9 weeks of age
Procedure: ALS transgenic mice were orally treated 3 times a week for 4 weeks with 0.5% methylcellulose or ZLN005 (Sigma) at 25 mg/kg in 0.5% methylcellulose, starting at 9 weeks of age. A wheel-running test was performed similarly to that described in Example 8. The animals started training at 13 weeks of age for 1.5 weeks of training on a treadmill at a constant speed of 10 rpm and then for 1.5 weeks of training at an accelerating speed from 5-15 rpm. After the training period at 14.5 and 16 weeks of age, animals were tested for motor performance at a constant speed and at an accelerating speed, respectively. […] Unpaired t-tests were used for statistical analyses.

CC(C)(C)c1ccc(-c2nc3ccccc3[nH]2)cc1 [ZLN005, 2-(4-tert-butylphenyl)-1H-benzimidazole]
glucose uptake (2-NBDG) in brain perivascular macrophages [1]: decreased
percentage of brain perivascular macrophages among total brain immune cells [2]: decreased
latency to fall ([3]; accelerating speed 5-15 rpm, p <0.05 vs Ctrl): 194.0 s
latency to fall ([3]; constant speed 10 rpm, difference to Ctrl not statistically significant): 271.5 s
animals active ([4]; 25 mg/kg orally daily, Day 4): 33%
animals paralyzed ([4]; 25 mg/kg orally daily, Day 4): none
animals showing evidence of lethargy ([4]; 25 mg/kg orally daily, Day 4): 66%
mean disease score ([4]; day 4, total of inflammation and physical activity scores): 1.6
depletion of dopaminergic neurons of the substantia nigra (tyrosine hydroxylase staining) [5]: reversed
nest building, amount of cotton shredded over 24 hours [6]: significantly increased the amount of cotton shredded
onset of hind limb paralysis ([7]; ALS transgenic mice): delayed
mean survival ([7]; ALS transgenic, 25 mg/kg orally 3 times a week starting at 5 or 10 weeks of age, p <0.05 vs ALS-Ctrl): 131 to 132 days
latency to fall ([8]; accelerating speed 5-15 rpm, 16 weeks of age): 243.7 s
latency to fall ([8]; constant speed 10 rpm, 14.5 weeks of age): 296.3 s

Reference: US10966962B2, “Method for treating neurodegenerative diseases” (THE BOARD OF TRUSTEES OF THE LELAND STANFORD JUNIOR …, priority 2014, dated 2021)
